Source: patent US20160030438A1, “ANTI-TUMORAL COMPOSITION COMPRISING A PI3KBETA INHIBITOR AND A RAF INHIBITOR, TO OVERCOME CANCER CELLS RESISTANCE” (SANOFI, priority 2013, published 2016)

Tests used:
Assay type in all cases: cell-based
[1] = system: human melanoma cell line WM-266-4; assay: In vitro pro-apoptotic activity (PARP cleavage western blot) in WM-266-4, example 2; details: 100 nM, positive control, WM-266-4, example 2
Procedure: The characterization of the interaction between compound (I) and compound (II) was studied using western blotting method measuring the expression of cleaved PARP which allows to investigate apoptosis by detecting the cleavage of the PARP protein.
(§1) The human melanoma WM-266-4 cell line was purchased at ATCC (Ref number CRL-1676 Batch 3272826). The WM-266-4 cells were cultured in RPMI1640 medium supplemented with 10% FBS and 2 mM L-Glutamine.
They were diluted following a 10 fold step dilution in DMSO in order to obtain a 1 mM solution. Then each solution at 10 mM and 1 mM was diluted 50-fold in culture medium containing 10% serum before being added onto cells with a 20-fold dilution factor to reach final concentrations of 10,000 nM and 1,000 nM. The final DMSO concentration was 0.1% in controls and in all treated wells.
WM-266-4 cells were seeded into 6-well microplates at 1 000 000 cells per well, in complete culture medium and incubated at 37° C., 5% CO2, overnight.
At the end of cell treatment period, adherent cells as well as cells in the cell culture supernatant were lysed for the preparation of the proteins. Cells were lysed in a lysis buffer containing Hepes 50 mM, NaCl 150 mM, Glycerol 10%, Triton 1%, pH=7.5, adding extemporaneously a cocktail of protease and phosphatase inhibitors diluted 100 fold. Protein concentrations in each sample were determined using microBCA technique according to manufacturer's instructions. Western blotting was performed loading 20 μg of proteins in each gel well, and according to the operating procedure. […] After western blotting revelation according to the operating procedure instructions, luminescence was read using FujiFilm (Ray Test) apparatus.
This instrument measures the total signal of luminescence obtained on Fujifilm machine (AU) for each selected band. Then, it subtracts the background value (BG) proportional to the size of the selected band or Area. The background is calculated from a band taken on the specific background of the western blot, to obtain the specific signal or (AU−BG) for each band. The calculation of the fold induction is performed for each treatment with compound or combination of compounds using the following formula:
Fold Induction=((AU−BG)t/(AU−BG)st)*100

[2] = system: human melanoma cell line A2058; assay: In vitro pro-apoptotic activity (PARP cleavage western blot) in A2058, example 4
Procedure: (§2) The characterization of the interaction between compound (I) and compound (II) was studied using western blotting method which allows investigating apoptosis by detecting the cleavage of the PARP protein.
(§3) The human melanoma A2058 cell line was purchased at ATCC (Ref number CRL-11147 Batch 5074651). The A2058 cells were cultured in DMEM High glucose medium supplemented with 10% FBS and 2 mM L-Glutamine.
(§4) Cell treatment, Western Blot experiment and calculation of apoptosis fold induction were performed according to the material and method described in example 2.

[3] = system: human melanoma cell line WM-266-4; assay: In vitro pro-apoptotic activity (PARP cleavage) in WM-266-4 in a concentration-dependent manner, example 5; details: single agent 100 nM, WM-266-4, example 5
Procedure: as §2, §1
They were diluted following two 10-fold step dilution in DMSO in order to obtain a 1 mM solution and a 0.1 mM solution Then each solution at 10 mM, 1 mM or 0.1 mM was diluted 50-fold in culture medium containing 10% serum before being added onto cells with a 20-fold dilution factor to reach final concentrations of 10,000 nM, 1,000 nM and 100 nM. The final DMSO concentration was 0.1% in controls and in all treated wells.
as §4

[4] = system: human melanoma cell line A2058; assay: In vitro pro-apoptotic activity (PARP cleavage) in A2058 in a concentration-dependent manner, example 6; details: single agent 100 nM, A2058, example 6
Procedure: as §2, §3, §4

Q: CC(=O)O[C@@]12CO[C@@H]1C[C@H](O)[C@@]1(C)C(=O)[C@H](O)C3=C(C)[C@@H](OC(=O)[C@H](O)[C@@H](NC(=O)OC(C)(C)C)c4ccccc4)C[C@@](O)([C@@H](OC(=O)c4ccccc4)[C@H]21)C3(C)C [Taxotere] was tested. Which “PARP cleavage signal (AU-BG)” value [1] did it give?
A: 2054900 AU-BG

Q: What about the fold induction at 0.1 µM ([1]; Homo sapiens) of the same compound?
A: 2.88

Q: And the “PARP cleavage signal (AU-BG)” value ([2]; 100 nM, positive control, A2058, example 4)?
A: 3563893 AU-BG

Q: What about the fold induction at 0.1 µM ([2]; Homo sapiens, A2058, read-out: Fold induction of PARP cleavage) of the same compound?
A: 1.66

Q: What about the fold induction at 0.1 µM ([3]; Homo sapiens) of the same compound?
A: 1.56

Q: And the “PARP cleavage signal (AU-BG)” value [3]?
A: 399272 AU-BG

Q: What about the fold induction at 0.1 µM ([4]; Homo sapiens) of the same compound?
A: 6.79

Q: What about the “PARP cleavage signal (AU-BG)” value [4] of the same compound?
A: 14448019 AU-BG
